Measured values published in BindingDB's records for doi:10.1021/jm800930w (Kyoto University, 2008).

Target: KiSS-1 receptor (Homo sapiens, UniProt Q969F8)
Experiment: Receptor Binding Assay
Conditions: pH 7.3; 25 °C

KiSS-1 receptor, sequence (Q969F8 whole entry): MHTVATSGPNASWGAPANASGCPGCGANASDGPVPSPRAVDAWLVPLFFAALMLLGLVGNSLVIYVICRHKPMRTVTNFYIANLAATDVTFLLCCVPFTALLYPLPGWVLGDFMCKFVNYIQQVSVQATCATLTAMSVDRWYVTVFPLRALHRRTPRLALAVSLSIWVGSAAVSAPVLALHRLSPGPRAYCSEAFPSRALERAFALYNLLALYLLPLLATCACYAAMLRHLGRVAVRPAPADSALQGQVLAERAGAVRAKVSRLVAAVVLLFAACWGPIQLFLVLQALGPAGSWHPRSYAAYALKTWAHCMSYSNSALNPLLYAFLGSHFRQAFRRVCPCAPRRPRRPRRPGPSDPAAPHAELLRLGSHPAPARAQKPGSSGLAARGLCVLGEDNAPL

IC50: 0.12 nM
SMILES: CC(C)C[C@H](NC(=O)CNC(=O)[C@H](Cc1ccccc1)NC(=O)[C@H](CO)NC(=O)[C@H](CC(N)=O)NC(=O)[C@H](Cc1c[nH]c2ccccc12)NC(=O)[C@H](CC(N)=O)NC(=O)[C@@H](N)Cc1ccc(O)cc1)C(=O)N[C@@H](CCCNC(=N)N)C(=O)N[C@@H](Cc1ccccc1)C(N)=O [(2S)-2-[(2S)-2-[(2S)-2-[(2S)-2-amino-3-(4-hydroxyphenyl)propanamido]butanediamido]-3-(1H-indol-3-yl)propanamido]-N-[(1S)-1-{[(1S)-1-[({[(1S)-1-{[(1S)-4-carbamimidamido-1-{[(1S)-1-carbamoyl-2-phenylethyl]carbamoyl}butyl]carbamoyl}-3-methylbutyl]carbamoyl}methyl)carbamoyl]-2-phenylethyl]carbamoyl}-2-hydroxyethyl]butanediamide]
